The target in one assay is T1, CLK2 (Homo sapiens, UniProt P49760).
T1 construct: purchased Carna Biosciences 04-127
Put plainly: Biochemical assay for inhibitors of CLK2 kinase activity (ADP-Glo). Conditions: 20 nM CLK2, 50 μM peptide substrate, 100 μM ATP, read-out: Assay 2: CLK2 Enzyme IC50. A general note: In ADP-Glo the light output rises with the ADP produced.

Another assay deals with T2, CK2α (Homo sapiens, UniProt P68400).
T2 construct: CK2α (residues 2-329) was produced in Escherichia coli BL21 (DE3) for kinase activity screening; His6 (N, cleaved yes); made in house; host or cells: Escherichia coli BL21 (DE3)
T2 sequence (P68400 2-329): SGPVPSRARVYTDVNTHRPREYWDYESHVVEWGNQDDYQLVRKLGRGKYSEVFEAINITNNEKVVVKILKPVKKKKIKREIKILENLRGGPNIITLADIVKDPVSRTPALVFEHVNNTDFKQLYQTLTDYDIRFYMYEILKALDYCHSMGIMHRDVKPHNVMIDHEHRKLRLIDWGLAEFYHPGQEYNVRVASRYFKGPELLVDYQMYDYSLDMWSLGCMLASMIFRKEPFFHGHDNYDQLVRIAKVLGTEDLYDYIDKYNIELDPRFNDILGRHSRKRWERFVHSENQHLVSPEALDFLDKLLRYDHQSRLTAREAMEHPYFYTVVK
Put plainly: Biochemical assay for inhibitors of CK2α kinase activity (ADP-Glo). Conditions: 0.2 nM CK2α, 50 μM peptide substrate, 15 μM ATP, read-out: Assay 1: CK2α Enzyme IC50.

In another assay the target is T3, intracellular CK2α (Homo sapiens, UniProt P19784).
T3 construct: host or cells: HCT116 (ATCC CCL-247)
T3 sequence (P19784 whole entry): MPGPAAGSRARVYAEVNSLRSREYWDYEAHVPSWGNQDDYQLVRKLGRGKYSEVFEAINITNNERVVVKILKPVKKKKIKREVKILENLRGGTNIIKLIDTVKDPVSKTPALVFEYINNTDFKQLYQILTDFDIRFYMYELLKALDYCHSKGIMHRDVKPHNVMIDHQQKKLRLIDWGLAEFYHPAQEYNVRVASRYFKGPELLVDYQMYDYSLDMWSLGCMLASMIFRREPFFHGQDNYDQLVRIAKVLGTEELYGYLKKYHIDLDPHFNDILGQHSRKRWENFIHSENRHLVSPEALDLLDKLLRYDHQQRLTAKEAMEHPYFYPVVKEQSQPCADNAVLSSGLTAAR
Put plainly: Cell-based NanoBRET assay for inhibitor binding to intracellular CK2α. Conditions: HCT116 cells transiently transfected with CSNK2A2-NanoLuc fusion vector; Tracer K-5; 2 h; read-out: Assay 3: NanoBRET ™ assay for binding to intracellular CK2α. Put shortly:
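Living cells expressing NanoLuc-CK2α fusion were given a fixed tracer concentration, and compounds competitively displaced the reversibly bound tracer. Donor (450 nm) and acceptor (610 or 630 nm) emissions were read; BRET ratio = (acceptor/donor)×1,000, giving apparent intracellular affinity.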
In general terms: In BRET a luciferase serves as donor, and the signal depends on an acceptor being close.

T1 sequence (P49760 whole entry): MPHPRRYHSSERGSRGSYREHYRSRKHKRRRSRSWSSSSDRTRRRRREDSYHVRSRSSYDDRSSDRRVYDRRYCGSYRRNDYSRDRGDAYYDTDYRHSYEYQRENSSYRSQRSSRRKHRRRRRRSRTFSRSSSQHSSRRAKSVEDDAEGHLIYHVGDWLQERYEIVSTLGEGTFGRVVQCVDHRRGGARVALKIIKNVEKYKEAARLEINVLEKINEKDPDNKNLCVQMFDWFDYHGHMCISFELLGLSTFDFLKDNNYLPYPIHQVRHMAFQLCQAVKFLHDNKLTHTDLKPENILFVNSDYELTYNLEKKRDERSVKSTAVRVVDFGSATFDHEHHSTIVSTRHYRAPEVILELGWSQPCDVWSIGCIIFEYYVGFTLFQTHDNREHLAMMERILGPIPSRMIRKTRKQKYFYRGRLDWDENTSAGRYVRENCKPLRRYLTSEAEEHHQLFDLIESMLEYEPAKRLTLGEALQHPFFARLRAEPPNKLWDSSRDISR

With `COc1n[nH]cc1-c1cc(NCCOCCCCNCc2cc3cc(C(F)(F)F)ccc3[nH]2)c2cn[nH]c2c1` [Example 92, 6-(3-methoxy-1H-pyrazol-4-yl)-N-(2-(4-(((5-(trifluoromethyl)-1H-indol-2-yl)methyl)amino)butoxy)ethyl)-1H-indazol-4-amine], the results for the IC50 at CLK2, on CK2α and at intracellular CK2α were 24.1 nM, 19.1 nM and 1780 nM, respectively.
As for `FC(F)(F)c1ccc2[nH]c(CNCCCCOCCNc3cc(-c4ccnnc4)cc4[nH]ncc34)cc2c1` [Example 93, 6-(pyridazin-4-yl)-N-(2-(4-(((5-(trifluoromethyl)-1H-indol-2-yl)methyl)amino)butoxy)ethyl)-1H-indazol-4-amine], the values for the IC50 on CLK2, at CK2α and at intracellular CK2α were 569 nM, 0.77 nM and 180 nM, respectively.
The corresponding values for `FC(F)(F)c1ccc2[nH]c(CNCCCCOCCNc3cccc4[nH]ncc34)cc2c1` [Example 94] are 5790 nM, 203 nM and 29300 nM.
Turning to `FC(F)(F)c1ccc2[nH]c(CNCCCCOCCNc3cc(-c4ccncn4)cc4[nH]ncc34)cc2c1` [Example 95, 6-(pyrimidin-4-yl)-N-(2-(4-(((5-(trifluoromethyl)-1H-indol-2-yl)methyl)amino)butoxy)ethyl)-1H-indazol-4-amine], the values for the IC50 at CLK2, at CK2α and on intracellular CK2α were 203 nM, 6.56 nM and 336 nM, respectively.
The corresponding values for `N#Cc1cc(NCCOCCCCNCc2cc3cc(C(F)(F)F)ccc3[nH]2)c2cn[nH]c2c1` [Example 96, 4-((2-(4-(((5-(trifluoromethyl)-1H-indol-2-yl)methyl)amino)butoxy)ethyl)amino)-1H-indazole-6-carbonitrile] are 227 nM, 27 nM and 2000 nM.
The corresponding values for `FC(F)(F)c1ccc2[nH]c(CNCCCCOCCNc3cc(-c4cnoc4)cc4[nH]ncc34)cc2c1` [Example 97, 6-(isoxazol-4-yl)-N-(2-(4-(((5-(trifluoromethyl)-1H-indol-2-yl)methyl)amino)butoxy)ethyl)-1H-indazol-4-amine] are 104 nM, 1.42 nM and 321 nM.
Regarding `c1cc2[nH]c(CNCCCCOCCNc3cc(-c4cnoc4)cc4[nH]ncc34)cc2cc1OC1CCC1` [Example 98, N-(2-(4-(((5-cyclobutoxy-1H-indol-2-yl)methyl)amino)butoxy)ethyl)-6-(isoxazol-4-yl)-1H-indazol-4-amine], the figures for the IC50 on CLK2, on CK2α and on intracellular CK2α were 122 nM, 0.82 nM and 105 nM, respectively.
The corresponding values for `FC(F)(F)Oc1ccc(CNCCCCOCCNc2cc(-c3ccnnc3)cc3[nH]nnc23)cc1Cl` [Example 99, N-(2-(4-((3-chloro-4-(trifluoromethoxy)benzyl)amino)butoxy)ethyl)-6-(pyridazin-4-yl)-1H-benzo[d][1,2,3]triazol-4-amine] are 28000 nM, 20.1 nM and 1010 nM.
The corresponding values for `FC(F)(F)c1ccc2[nH]c(CNCCCCOCCNc3cc(-c4ccnnc4)cc4[nH]nnc34)cc2c1` [Example 100, 6-(pyridazin-4-yl)-N-(2-(4-(((5-(trifluoromethyl)-1H-indol-2-yl)methyl)amino)butoxy)ethyl)-1H-benzo[d][1,2,3]triazol-4-amine] are 22900 nM, 22.3 nM and 1410 nM.
Take `FC(F)(F)c1ccc2[nH]c(CNCCCCOCCOc3cc(-c4ccnnc4)cc4[nH]nnc34)cc2c1` [Example 101, 4-(2-((6-(pyridazin-4-yl)-1H-benzo[d][1,2,3]triazol-4-yl)oxy)ethoxy)-N-((5-(trifluoromethyl)-1H-indol-2-yl)methyl)butan-1-amine]: the IC50 at CLK2 is 48600 nM; on CK2α, 223 nM; on intracellular CK2α, greater than 50000 nM.
The corresponding values for `FC(F)(F)Oc1ccc(CNCCCCOCCOc2cc(-c3ccnnc3)cc3[nH]nnc23)cc1Cl` [Example 102, N-(3-chloro-4-(trifluoromethoxy)benzyl)-4-(2-((6-(pyridazin-4-yl)-1H-benzo[d][1,2,3]triazol-4-yl)oxy)ethoxy)butan-1-amine] are 43000 nM, 393 nM and greater than 50000 nM.
The corresponding values for `N#CCc1cc(F)cc(CNCCCCOC2CN(c3cc(-n4cnnc4)cc4[nH]ncc34)C2)c1` [Example 103, 2-(3-(((4-((1-(6-(4H-1,2,4-triazol-4-yl)-1H-indazol-4-yl)azetidin-3-yl)oxy)butyl)amino)methyl)-5-fluorophenyl)acetonitrile] are 129 nM, 26.5 nM and 10700 nM.
In the case of `OCc1cc(CNCCCCOC2CN(c3cc(-n4cnnc4)cc4[nH]ncc34)C2)cc(C(F)(F)F)c1` [Example 104, (3-(((4-((1-(6-(4H-1,2,4-triazol-4-yl)-1H-indazol-4-yl)azetidin-3-yl)oxy)butyl)amino)methyl)-5-(trifluoromethyl)phenyl)methanol], the IC50 at CLK2 worked out at 264 nM; on CK2α, 64.2 nM; at intracellular CK2α, 14900 nM.
`N#CCc1cc(CNCCCCOC2CN(c3cc(-n4cnnc4)cc4[nH]ncc34)C2)cc(C(F)(F)F)c1` [Example 105, 2-(3-(((4-((1-(6-(4H-1,2,4-triazol-4-yl)-1H-indazol-4-yl)azetidin-3-yl)oxy)butyl)amino)methyl)-5-(trifluoromethyl)phenyl)acetonitrile]: the IC50 on CLK2 was 167 nM; at CK2α it was 21.6 nM; at intracellular CK2α, 5340 nM.
The corresponding values for `Cc1cc(CC#N)cc(CNCCCCOC2CN(c3cc(-n4cnnc4)cc4[nH]ncc34)C2)c1` [Example 106, 2-(3-(((4-((1-(6-(4H-12,4-triazol-4-yl)-1H-indazol-4-yl)azetidin-3-yl)oxy)butyl)amino)methyl)-5-methylphenyl)acetonitrile] are 368 nM, 41.7 nM and 26600 nM.
The corresponding values for `FC(F)(F)Oc1ccc(CNCCCCOC2CN(c3cc(-c4ccnnc4)cc4[nH]ncc34)C2)cc1Cl` [Example 107, N-(3-chloro-4-(trifluoromethoxy)benzyl)-4-((1-(6-(pyridazin-4-yl)-1H-indazol-4-yl)azetidin-3-yl)oxy)butan-1-amine] are 2640 nM, 28.1 nM and 3740 nM.
The corresponding values for `Fc1cc(CNCCCCOC2CN(c3cc(-c4ccnnc4)cc4[nH]ncc34)C2)ccc1OC(F)(F)F` [Example 108, N-(3-fluoro-4-(trifluoromethoxy)benzyl)-4-((1-(6-(pyridazin-4-yl)-1H-indazol-4-yl)azetidin-3-yl)oxy) butan-1-amine] are 2730 nM, 20.9 nM and 2380 nM.
In the case of `c1cc(-c2cc(N3CC(OCCCCNCc4cc5cc(OC6CCC6)ccc5[nH]4)C3)c3cn[nH]c3c2)cnn1` [Example 109, N-((5-cyclobutoxy-1H-indol-2-yl)methyl)-4-((1-(6-(pyridazin-4-yl)-1H-indazol-4-yl)azetidin-3-yl)oxy)butan-1-amine], the figures for the IC50 at CLK2, at CK2α and on intracellular CK2α were 2920 nM, 42.5 nM and 2810 nM, respectively.
The corresponding values for `OCc1cc(F)cc(CNCCCCOC2CN(c3cc(-c4ccnnc4)cc4[nH]ncc34)C2)c1` [Example 110, (3-fluoro-5-(((4-((1-(6-(pyridazin-4-yl)-1H-indazol-4-yl)azetidin-3-yl)oxy)butyl)amino)methyl)phenyl)methanol] are 2720 nM, 384 nM and 20600 nM.
The corresponding values for `OCc1cc(Cl)cc(CNCCCCOC2CN(c3cc(-c4ccnnc4)cc4[nH]ncc34)C2)c1` [Example 111, (3-chloro-5-(((4-((1-(6-(pyridazin-4-yl)-1H-indazol-4-yl)azetidin-3-yl)oxy)butyl)amino)methyl)phenyl)methanol] are 2300 nM, 228 nM and 14200 nM.
Turning to `OCc1cc(CNCCCCOC2CN(c3cc(-c4ccnnc4)cc4[nH]ncc34)C2)cc(C(F)(F)F)c1` [Example 112, (3-(((4-((1-(6-(pyridazin-4-yl)-1H-indazol-4-yl)azetidin-3-yl)oxy)butyl)amino)methyl)-5-(trifluoromethyl)phenyl)methanol], the values for the IC50 on CLK2, at CK2α and on intracellular CK2α were 633 nM, 205 nM and 14000 nM, respectively.
The corresponding values for `N#CCc1cc(F)cc(CNCCCCOC2CN(c3cc(-c4ccnnc4)cc4[nH]ncc34)C2)c1` [Example 113, 2-(3-fluoro-5-(((4-((1-(6-(pyridazin-4-yl)-1H-indazol-4-yl)azetidin-3-yl)oxy)butyl)amino)methyl)phenyl)acetonitrile] are 2710 nM, 67.5 nM and 8090 nM.

Values taken from patent publication US20260085062A1, “NOVEL COMPOUNDS AS CK2 INHIBITORS” (Cambridge Enterprise Limited, priority 2022, published 2026).
